Experimental findings from patent publication EP4567031A1, “HPK1 INHIBITOR, PREPARATION METHOD THEREFOR, AND USE THEREOF” (Beijing Earthwise Technology Co., Ltd., priority 2022, dated 2024) are described below.

Structures are written as SMILES.

One experiment deals with human Pan T cells. As to the kind of experiment: Human Pan T cell IL-2 ELISA. It is filed as cell-based. The note with it: Anti-CD3 and Anti-CD28, 48 hours, supernatant IL-2 ELISA, read-out: IL-2 release, EC50. As for the experimental part: A compound was dissolved in DMSO to 10 mM, and then diluted three-fold with DMSO to 9 dosages in a 96-well plate. Then, 10 µL of the diluted compound sample was transferred to a 96-well plate with 90 µL of cell culture medium, and the plate was shaken for 5 minutes. Then, 5 µL of the diluted compound sample was transferred to a 96-well plate with 120 µL of cell culture medium, and the plate was shaken for 5 minutes. According to the experimental design diagram, 50 µL of the diluted compound sample was transferred to a cell plate. Final concentrations of the compound in this assay were 10000.00, 5000, 2500, 1250, 625, 312.5, 156.25, 78.125 and 39.063 nM.
The assay was conducted in a 96-well plate. On the first day of the assay, Anti-CD3 was added to the 96-well plate and incubated in a 4 °C refrigerator overnight. On the second day of the assay, human Pan T cells were recovered, centrifuged and counted. The cell density was adjusted to 1*10^6 cells/ml. Then, 100 µL of cells were added to the 96-well plate washed with PBS and added with Anti-CD3; according to the experimental design diagram, 50 µL of diluted Anti-CD28 and 50 µL of the diluted compound were added to each well, centrifuged, and the cell plate was placed and incubated in an incubator for 48 hours; after 48 hours, the plate was centrifuged and the supernatant was collected for IL-2 ELISA.
The signal value of light absorption was converted into a multiple. Multiple = sample value/the average value of control wells. The average value of control wells refers to the value measured in wells with DMSO added. EC50 values were calculated by XLFit (version 5.3.1.3) in Excel. Equation: Y=Bottom + (Top-Bottom) / (1 + (EC50/X) ^ HillSlope). Table 6. Results of cellular activity of the compounds
(An ELISA detects its analyte on a solid surface through an enzyme-linked reagent.)
With `COC1CCCn2c(-c3cc4c(c5c3CNC5=O)Nc3ccc(N5CCOCC5C)cc3C4(C)C)cnc21` (single isomer, unassigned) [Example 181], the EC50 came out at 0.026 µM. With `COC1CCCn2c(-c3cc4c(c5c3CNC5=O)Nc3ccc(N5CCOCC5C)cc3C4(C)C)cnc21` (single isomer, unassigned) [Example 180], the EC50 came to 0.027 µM. On to `COC1CCc2c(-c3cc4c(c5c3CNC5=O)Nc3ccc(N5CCOCC5)cc3C4(C)C)cncc21` (single isomer, unassigned) [Example 202], for which the half-maximal effective concentration (EC50) is 0.0087 µM.

The experiment is the same for the next values; noted with them: Homo sapiens, T-cell, 48 h, Anti-CD3 and Anti-CD28, supernatant IL-2 ELISA, read-out: IL-2 release, EC50.
In the case of `CC1(C)c2cc(N3CCOCC3)ccc2Nc2c1cc(-c1cnc3cc(OC4COC4)ccn13)c1c2C(=O)NC1` [Example 217], the EC50 is 0.019 µM. In the case of `CC(C)(O)c1ccn2c(-c3cc4c(c5c3CNC5=O)Nc3ccc(N5CCOCC5)cc3C4(C)C)cnc2c1` [Example 208], the EC50 was found to be 0.016 µM.

As to `CC1(C)c2cc(N3CCOCC3)ccc2Nc2c1cc(-c1cnc3c(C#N)nccn13)c1c2C(=O)NC1` [Example 192], the EC50 was found to be 0.019 µM. For the compound `COc1nccn2c(-c3cc4c(c5c3CNC5=O)Nc3ccc(C5CNC(=O)C5)cc3C4(C)C)cnc12` (stereo not drawn) [Example 255], the concentration giving a half-maximal response (EC50) is 0.005 µM. Same read-out and setting: with `CC1(C)c2cc(N3CCOC(C(C)(C)O)C3)ccc2Nc2c1cc(-c1cnn3cc(C#N)ccc13)c1c2C(=O)NC1` (single isomer, unassigned) [Example 145] the figure was 0.0065 µM; with `CC1CCCn2c(-c3cc4c(c5c3CNC5=O)Nc3ccc(N5CCOC(C(C)(C)O)C5)cc3C4(C)C)cnc21` (stereo not drawn) [Example 103], 0.0104 µM. In the case of `CC1(C)c2cc(N3CCOC(C(C)(C)O)C3)ccc2Nc2c1cc(-c1cnc3cc(Cl)ccn13)c1c2C(=O)NC1` (stereo not drawn) [Example 100], the EC50 was found to be 0.0131 µM.

`COc1nccn2c(-c3cc4c(c5c3CNC5=O)Nc3ccc(N5C6CCC5COC6)cc3C4(C)C)cnc12` [Example 232]: the EC50 stood at 0.011 µM. For `COC1CCCn2c(-c3cc4c(c5c3CNC5=O)Nc3ccc(N5CCC(O)CC5)cc3C4(C)C)cnc21` (single isomer, unassigned) [Example 243], the half-maximal effective concentration (EC50) came to 0.013 µM. For the compound `COC1CCCn2c(-c3cc4c(c5c3CNC5=O)Nc3ccc(C5CCOCC5)cc3C4(C)C)cnc21` (single isomer, unassigned) [Example 163], the EC50 was 0.025 µM. With `CC1(C)c2cc(N3CCOC(CO)C3)ccc2Nc2c1cc(-c1cnn3cccnc13)c1c2C(=O)NC1` (stereo not drawn) [Example 118], the concentration giving a half-maximal response (EC50) was 0.00732 µM. On the same count and under the same terms, the value for `Cc1c(-c2cc3c(c4c2CNC4=O)Nc2ccc(N4CCOC(C(C)(C)O)C4)cc2C3(C)C)cnn1C1CC1` (single isomer, unassigned) [Example 148] was 0.0218 µM; that for `CC1(C)c2cc(N3CCOC(C4(O)CC4)C3)ccc2Nc2c1cc(-c1cnc3cc(C(F)F)ccn13)c1c2C(=O)NC1` (stereo not drawn) [Example 205] was 0.0066 µM; that for `CC1(C)c2cc(N3CCOCC3)ccc2Nc2c1cc(-c1cnc3c(C4COC4)nccn13)c1c2C(=O)NC1` [Example 188] was 0.073 µM. Regarding `Cn1c(-c2cc3c(c4c2CNC4=O)Nc2ccc(N4CCOCC4)cc2C3(C)C)cnc1C1CCCO1` (single isomer, unassigned) [Example 190], the EC50 stood at 0.053 µM. As to `COC1CCCn2c(-c3cc4c(c5c3CNC5=O)Nc3cc(C5CCOCC5)ccc3C4(C)C)cnc21` (single isomer, unassigned) [Example 144], the EC50 was 0.134 µM. For `Cn1c(-c2cc3c(c4c2CNC4=O)Nc2ccc(N4CCOC(C(C)(C)O)C4)cc2C3(C)C)cnc1OC1CCOC1` (single isomer, unassigned) [Example 153], the EC50 was determined as 0.0468 µM. For the compound `Cn1cnc2c(-c3cc4c(c5c3CNC5=O)Nc3ccc(N5CCOC(C(C)(C)O)C5)cc3C4(C)C)cncc21` (stereo not drawn) [Example 119], the EC50 was found to be 0.00852 µM.

Take `COC1CCCn2c(-c3cc4c(c5c3CNC5=O)Nc3cc(C#N)c(N5CCOCC5)cc3C4(C)C)cnc21` (single isomer, unassigned) [Example 175]: the 50% effective concentration (EC50) is 0.014 µM. Regarding `COC1CCCn2c(-c3nc4c(c5c3CNC5=O)Nc3ccc(N5CCOCC5)cc3C4(C)C)cnc21` (single isomer, unassigned) [Example 279], the EC50 is 0.17 µM. For `Cn1c(-c2cc3c(c4c2CNC4=O)Nc2ccc(N4CCOC(C(C)(C)O)C4)cc2C3(C)C)cnc1C1CCNC1` (single isomer, unassigned) [Example 143], the EC50 was found to be 0.592 µM. Regarding `CC1(C)c2cc(N3CCOCC3)ccc2Nc2c1cc(-c1cnc3nc(C4CC4)ccn13)c1c2C(=O)NC1` [Example 254], the EC50 amounted to 0.028 µM. In the case of `CC1(C)c2cc(N3CCOCC3)ccc2Nc2c1cc(-c1cnc3n1CCCC3OC1COC1)c1c2C(=O)NC1` (single isomer, unassigned) [Example 220], the concentration giving a half-maximal response (EC50) worked out at 0.05 µM. Regarding `CC1(C)c2cc(N3CCOCC3)ccc2Nc2c1cc(-c1cnc3nc(N4CC(O)C4)ccn13)c1c2C(=O)NC1` [Example 253], the EC50 was 0.054 µM. Same read-out and setting: with `CC1(C)c2cc(N3CCOCC3)ccc2Nc2c1cc(-c1cnc3cc(C#N)cnn13)c1c2C(=O)NC1` [Example 246] the figure was 0.0092 µM. Same read-out and setting: the value for `COCC1(O)CCN(c2ccc3c(c2)C(C)(C)c2cc(-c4cnn5cccnc45)c4c(c2N3)C(=O)NC4)CC1` [Example 49] was 0.0127 µM; that for `CC1(C)c2cc(N3CCOCC3)ccc2Nc2c1cc(-c1nnc3cc(C#N)ccn13)c1c2C(=O)NC1` [Example 249] was 0.0047 µM; that for `Cn1ncc2c(-c3cc4c(c5c3CNC5=O)Nc3ccc(N5CCOC(C(C)(C)O)C5)cc3C4(C)C)cncc21` (single isomer, unassigned) [Example 146] was 0.0057 µM. Consider `COC1CCCn2c(-c3cc4c(c5c3CNC5=O)Nc3ccc(N5CCOCC5C)cc3C4(C)C)cnc21` (single isomer, unassigned) [Example 155], for which the EC50 was 0.0266 µM. Take `CCOC1CCCn2c(-c3cc4c(c5c3CNC5=O)Nc3ccc(N5CCOCC5)cc3C4(C)C)cnc21` (single isomer, unassigned) [Example 136]: the EC50 was 0.0245 µM. As to `CC1(O)CCN(c2ccc3c(c2)C(C)(C)c2cc(-c4cnc5nc(C(F)F)ccn45)c4c(c2N3)C(=O)NC4)CC1` [Example 256], the EC50 was 0.016 µM. Regarding `Cc1c(-c2cc3c(c4c2CNC4=O)Nc2ccc(N4CCOCC4)cc2C3(C)C)cnc2c1NCCO2` [Example 251], the concentration giving a half-maximal response (EC50) was found to be 0.0064 µM. The same measure, in the same setting: with `CC1(C)c2cc(N3CCOCC3)ccc2Nc2c1cc(-c1cnc3n1CCCC3)c1c2C(=O)NC1` [Example 48] the figure was 0.0135 µM. Regarding `Cc1ccn2c(-c3cc4c(c5c3CNC5=O)Nc3ccc(N5CCOC(C(C)(C)O)C5)cc3C4(C)C)cnc2n1` (single isomer, unassigned) [Example 162], the concentration for a half-maximal effect (EC50) stood at 0.00633 µM. With `CC1(C)c2cc(N3CCOCC3)ccc2Nc2c1cc(-c1cnc3c(=O)n(C(F)F)ccn13)c1c2C(=O)NC1` [Example 258], the EC50 was 0.0061 µM.

Consider `CCOc1nccn2c(-c3cc4c(c5c3CNC5=O)Nc3ccc(N5CCOCC5)cc3C4(C)C)cnc12` [Example 160], for which the concentration giving a half-maximal response (EC50) was 0.0126 µM. Take `CNC1CCN(c2ccc3c(c2)C(C)(C)c2cc(-c4cnn5cccnc45)c4c(c2N3)C(=O)NC4)CC1` [Example 45]: the 50% effective concentration (EC50) turned out to be 0.00528 µM. Turning to `CC1(C)c2cc(N3CCOCC3)ccc2Nc2c1cc(-c1cnn3cc(C#N)ccc13)c1c2C(=O)NC1` [Example 237], the EC50 was determined as 0.0087 µM.

In the case of `COc1nccn2c(-c3cc4c(c5c3CNC5=O)Nc3ccc(N5CCOCC5=O)cc3C4(C)C)cnc12` [Example 238], the EC50 worked out at 0.058 µM.

A word on the EC50: it is the concentration needed to bring the measured effect to its halfway point.
